Non-standard residues stand in square brackets, D forms with d. Residues, ends and D or L forms follow the SMILES beside them. *: point of attachment. X10 = CNC(=N)NCCC[C@H](NC(=O)[C@H](CC(C)C)NCCN*)C(=O)N[C@@H](Cc1ccccc1)C(N)=O; Acetyl(2-(4-imidazolyl)) = O=C(Cc1c[nH]cn1)*; Phe(4-F) = N[C@@H](Cc1ccc(F)cc1)C(=O)O; Arg(Me) = CNC(=N)NCCC[C@H](N)C(=O)O; 4Pal = N[C@@H](Cc1ccncc1)C(=O)O; d4Pal = N[C@H](Cc1ccncc1)C(=O)O; Cha = N[C@@H](CC1CCCCC1)C(=O)O; azaGly = NNC(=O)O
Molecular target: T1, hOT7T175 (Homo sapiens, UniProt Q969F8)
T1 construct: expressed in transfected cells
Test: Intracellular Ca ion level-increasing activity using FLIPR (180 seconds; specific activity to Metastin (1-54))
Format: cell-based
Conditions: hOT7T175/CHO, change in intracellular calcium ion level for 180 seconds, Tables 21-23

T1 sequence (Q969F8 whole entry L364H): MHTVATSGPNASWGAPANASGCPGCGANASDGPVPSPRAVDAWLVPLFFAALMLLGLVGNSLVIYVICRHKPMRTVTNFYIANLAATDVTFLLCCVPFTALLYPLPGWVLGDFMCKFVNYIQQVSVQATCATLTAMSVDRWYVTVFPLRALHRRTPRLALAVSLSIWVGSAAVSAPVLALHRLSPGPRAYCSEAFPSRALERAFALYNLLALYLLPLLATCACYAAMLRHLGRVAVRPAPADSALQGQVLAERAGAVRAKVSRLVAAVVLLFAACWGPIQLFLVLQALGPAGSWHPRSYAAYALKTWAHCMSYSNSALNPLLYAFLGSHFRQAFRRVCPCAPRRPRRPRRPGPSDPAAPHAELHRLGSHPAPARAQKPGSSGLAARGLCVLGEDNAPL

Row | Molecule | intracellular Ca ion level-increasing activity [specific activity to Metastin (1-54)]
1 | CNC(=N)NCCC[C@H](NC(=O)[C@H](CC(C)C)NC(=O)NNC(=O)[C@H](Cc1ccccc1)NC(=O)[C@H](CO)NC(=O)[C@H](CC(N)=O)NC(=O)[C@H](Cc1ccncc1)NC(=O)[C@@H](CC(N)=O)NC(=O)[C@@H](N)Cc1ccc(O)cc1)C(=O)N[C@@H](Cc1ccccc1)C(N)=O [Compound No. 304, Tyr-D-Asn-Pya(4)-Asn-Ser-Phe-AzaGly-Leu-Arg(Me)-Phe-NH2] (H-Y[dN][4Pal]NSF[azaGly]L[Arg(Me)]F-NH2) | 3
2 | CNC(=N)NCCC[C@H](NC(=O)[C@H](CC(C)C)NC(=O)NNC(=O)[C@H](Cc1ccccc1)NC(=O)[C@H](CO)NC(=O)[C@H](CC(N)=O)NC(=O)[C@H](CC1CCCCC1)NC(=O)[C@@H](CC(N)=O)NC(=O)[C@H](N)Cc1ccncc1)C(=O)N[C@@H](Cc1ccccc1)C(N)=O [Compound No. 306, D-Pya(4)-D-Asn-Cha-Asn-Ser-Phe-AzaGly-Leu-Arg(Me)-Phe-NH2] (H-[d4Pal][dN][Cha]NSF[azaGly]L[Arg(Me)]F-NH2) | 2
3 | CNC(=N)NCCC[C@H](NC(=O)[C@H](CC(C)C)NCCNC(=O)[C@H](Cc1ccccc1)NC(=O)[C@H](CO)NC(=O)[C@H](CC(N)=O)NC(=O)[C@H](Cc1c[nH]c2ccccc12)NC(=O)[C@H](CC(N)=O)NC(=O)[C@H](N)Cc1ccc(O)cc1)C(=O)N[C@@H](Cc1ccccc1)C(N)=O [Compound No. 307, D-Tyr-Asn-Trp-Asn-Ser-Phe-GlyΨ(CH2NH)Leu-Arg(Me)-Phe-NH2] (H-[dY]NWNSF-X10) | 1
4 | CNC(=N)NCCC[C@H](NC(=O)[C@H](CC(C)C)NC(=O)NNC(=O)[C@H](Cc1ccccc1)NC(=O)[C@H](CO)NC(=O)[C@H](CC(N)=O)NC(=O)[C@@H](NC(=O)[C@@H](CC(N)=O)NC(=O)[C@H](N)Cc1ccc(O)cc1)[C@@H](C)O)C(=O)N[C@@H](Cc1ccc(F)cc1)C(N)=O [Compound No. 316, D-Tyr-D-Asn-Thr-Asn-Ser-Phe-AzaGly-Leu-Arg(Me)-Phe(4F)-NH2] (H-[dY][dN]TNSF[azaGly]L[Arg(Me)][Phe(4-F)]-NH2) | 1
5 | CNC(=N)NCCC[C@H](NC(=O)[C@H](CC(C)C)NC(=O)NNC(=O)[C@H](Cc1ccccc1)NC(=O)[C@H](CO)NC(=O)[C@H](CC(N)=O)NC(=O)[C@H](Cc1ccncc1)NC(=O)[C@@H](CC(N)=O)NC(=O)[C@H](N)Cc1ccc(O)cc1)C(=O)N[C@@H](Cc1ccc(F)cc1)C(N)=O [Compound No. 317, D-Tyr-D-Asn-Pya(4)-Asn-Ser-Phe-AzaGly-Leu-Arg(Me)-Phe(4F)-NH2] (H-[dY][dN][4Pal]NSF[azaGly]L[Arg(Me)][Phe(4-F)]-NH2) | 1
6 | CNC(=N)NCCC[C@H](NC(=O)[C@H](CC(C)C)NC(=O)NNC(=O)[C@H](Cc1ccccc1)NC(=O)[C@H](CO)NC(=O)[C@H](CC(N)=O)NC(=O)Cc1c[nH]cn1)C(=O)N[C@@H](Cc1ccccc1)C(N)=O [Compound No. 323, 4-Imidazoleacetyl-Asn-Ser-Phe-AzaGly-Leu-Arg(Me)-Phe-NH2] ({Acetyl(2-(4-imidazolyl))}-NSF[azaGly]L[Arg(Me)]F-NH2) | 1
7 | (2R)-2-Benzoyloxy-3-phenylpropionyl-AzaGly-Leu-Arg(Me)-Trp-NH2 [Compound No. 412] | ⅕
8 | (2S)-2-Benzoyloxy-3-phenylpropionyl-AzaGly-Leu-Arg(Me)-Trp-NH2 [Compound No. 380] | 5
9 | (2S)-2-acetoxy-3-phenylpropionyl-AzaGly-Leu-Arg(Me)-Trp-NH2 [Compound No. 373] | 2
10 | (R)-3-hydroxy-2-methylpropionyl-Phe-AzaGly-Leu-Arg(Me)-Trp-NH2 [Compound No. 452] | 1
